Measured values from US4102917A, “Substituted phenyl naphthalenesulfonic acids” (American Cyanamid Company, priority 1977, dated 1978).
Structures can show the parent of a compound that is named as a salt.

Assays:
human C1 = assay: Test, Code 026 (C1 inhibitor); format: biochemical; conditions: activity in wells, two-fold serial dilution assay; higher well number indicates higher activity
Excerpt: (§1) An active inhibitor protects C2 from C1 and C4; (ii) Test, Code 035 (C3-C9 inhibitor) -- This test determines the ability of the late components of human complement (C3-C9) to lyse EAC 142 in the presence of appropriate dilutions of the test compound. An active inhibitor protects EAC 142 from lysis by human C3-C9; (iii) Test, Code 036 (C-Shunt inhibitor) -- In this test human erythrocytes rendered fragile are lysed in autologous serum via the shunt pathway activated by cobra venom factor in the presence of appropriate dilutions of the test compound. Inhibition of the shunt pathway results in failure of lysis; (iv) Forssman Vasculitis Test -- Here, the well known complement dependent lesion, Forssman vasculitis, is produced in guinea pigs by intradermal injection of rabbit anti-Forssman antiserum. […]

[1] = test system: late components of human complement (C3-C9); assay: Test, Code 035 (C3-C9 inhibitor), lysis of EAC 142; format: cell-based; conditions: activity in wells, two-fold serial dilution assay; higher well number indicates higher activity; N=Negative
Excerpt: as §1

shunt pathway = assay: Test, Code 036 (C-Shunt inhibitor), lysis of human erythrocytes via shunt pathway activated by cobra venom factor; format: cell-based; conditions: activity in wells, two-fold serial dilution assay; higher well number indicates higher activity
Excerpt: as §1

whole complement = assay: Complement Level Reduction Test (in vivo activity, guinea pig); conditions: 200 mg/kg
Excerpt: An active inhibitor protects C2 from C1 and C4; (ii) Test, Code 035 (C3-C9 inhibitor) -- This test determines the ability of the late components of human complement (C3-C9) to lyse EAC 142 in the presence of appropriate dilutions of the test compound. An active inhibitor protects EAC 142 from lysis by human C3-C9; (iii) Test, Code 036 (C-Shunt inhibitor) -- In this test human erythrocytes rendered fragile are lysed in autologous serum via the shunt pathway activated by cobra venom factor in the presence of appropriate dilutions of the test compound. Inhibition of the shunt pathway results in failure of lysis; (iv) Forssman Vasculitis Test -- Here, the well known complement dependent lesion, Forssman vasculitis, is produced in guinea pigs by intradermal injection of rabbit anti-Forssman antiserum. The lesion is measured in terms of diameter, edema and hemorrhage and the extent to which a combined index of these is inhibited by prior intraperitoneal injection of the test compound at 200 mg/kg is then reported, unless otherwise stated; (v) Forssman Shock Test -- Lethal shock is produced in guinea pigs by an i.v. injection of anti-Forssman antiserum and the harmonic mean death time of treated guinea pigs is compared with that of simultaneous controls; (vi) Complement Level Reduction Test -- In this test, the above dosed guinea pigs, or others, are bled for serum and the complement level is determined in undiluted serum by the capillary tube method of U.S. Pat. No. 3,876,376 and compared to undosed control guinea pigs; and (vii) Cap 50 Test -- Here, appropriate amounts of the test compound are added to a pool of guinea pig serum in vitro, after which the undiluted serum capillary tube assay referred to above is run. The concentration of compound inhibiting 50 % is reported.
With reference to Table I, guinea pigs weighing about 300 g were dosed intravenously (i.v.) or intraperitoneally (i.p.) with 200 mg/kg of the test compound dissolved in saline and adjusted to pH 7-8. […] The serum was tested for whole complement using the capillary tube assay. Percent inhibition was calculated by comparison with simultaneous controls. The results appear in Table I together with results of tests, code 026, 035, 036, Cap 50, % inhibition and Forssman shock.

complement system = conditions: literature; cited from earlier work
[2] = test system: hereditary angioneurotic edema; conditions: literature; cited from earlier work
human serum = conditions: in vitro and in vivo, literature; cited from earlier work

O=C(O)c1cc(NC(=O)c2cc(NC(=S)Nc3cc(S(=O)(=O)O)cc4cc(S(=O)(=O)O)cc(S(=O)(=O)O)c34)cc(C(=O)Nc3cc(C(=O)O)cc(C(=O)O)c3)c2)cc(C(=O)O)c1 [5,5'-{{5-[2-Thio-3-(3,6,8-trisulfo-1-naphthyl)ureido]-1,3-phenylene}bis(carbonylimino)}diisophthalic acid heptasodium salt]
C1 026 Wells (human C1): +5 Wells | C-Late 035 Wells [1]: N | Shunt Inhibition 036 Wells (shunt pathway): +1 Wells

O=C(Nc1cc(S(=O)(=O)[O-])cc2cc(S(=O)(=O)[O-])cc(S(=O)(=O)[O-])c12)c1cc(NC(=S)Nc2cc(S(=O)(=O)[O-])cc3cc(S(=O)(=O)[O-])cc(S(=O)(=O)[O-])c23)cc(C(=O)Nc2cc(S(=O)(=O)[O-])cc3cc(S(=O)(=O)[O-])cc(S(=O)(=O)[O-])c23)c1.[Na+].[Na+].[Na+].[Na+].[Na+].[Na+].[Na+].[Na+].[Na+] [8-{3-[3,5-Bis(3,6,8-trisulfo-1-naphthylcarbamoyl)phenyl] -2-thioureido}-1,3,6-naphthalenetrisulfonic acid nonasodium salt]
C-Late 035 Wells [1]: +1 Wells | In Vivo Activity (Guinea Pig) % Inhibition, Intraperitoneal, 30 min (whole complement; i.p., 30 min): -50% | In Vivo Activity (Guinea Pig) % Inhibition, Intraperitoneal, 60 min (whole complement; i.p., 60 min): -57% | In Vivo Activity (Guinea Pig) % Inhibition, Intraperitoneal, 120 min (whole complement; i.p., 120 min): -74% | In Vivo Activity (Guinea Pig) % Inhibition, Intravenous, 2 min (whole complement; i.v., 2 min): -97% | In Vivo Activity (Guinea Pig) % Inhibition, Intravenous, 30 min (whole complement; i.v., 30 min): -79% | In Vivo Activity (Guinea Pig) % Inhibition, Intravenous, 120 min (whole complement; i.v., 120 min): -58%

Cc1ccc(C(=O)Nc2ccc(S(=O)(=O)O)c3cc(S(=O)(=O)O)cc(S(=O)(=O)O)c23)cc1NC(=O)c1cccc(NC(=O)Nc2cccc(C(=O)Nc3cc(C(=O)Nc4ccc(S(=O)(=O)O)c5cc(S(=O)(=O)O)cc(S(=O)(=O)O)c45)ccc3C)c2)c1 [Suramin]
anticomplementary effect / complement inhibition (complement system): competitive inhibitor of the complement system | use in the treatment of hereditary angioneurotic edema [2]: used with success in the treatment of hereditary angioneurotic edema

Nc1ccc2cc(S(=O)(=O)O)cc(O)c2c1N=Nc1ccc(NC(=O)Nc2ccc(N=Nc3c(N)ccc4cc(S(=O)(=O)O)cc(O)c34)c(S(=O)(=O)O)c2)cc1S(=O)(=O)O [chlorazol fast pink, 3,3'-ureylenebis-[6-(2-amino-8-hydroxy-6-sulfo-1-naphthylazo)]benzenesulfonic acid, tetrasodium salt]
anticomplementary effect / complement inhibition (complement system): reported to have an anticomplementary effect

NCCCCCC(=O)O [epsilon-aminocaproic acid]
use in the treatment of hereditary angioneurotic edema [2]: used with success in the treatment of hereditary angioneurotic edema

NC[C@H]1CC[C@H](C(=O)O)CC1 [tranexamic acid]
use in the treatment of hereditary angioneurotic edema [2]: used with success in the treatment of hereditary angioneurotic edema

heparin
anticomplementary effect / complement inhibition (complement system): reported to have an anticomplementary effect

pentosan-poly-sulfoester
anticomplementary activity, reduction in the total hemolytic complement activity (human serum): anticomplementary activity on human serum both in vitro and in vivo
